Among the data in the OPERA property sets (Mansouri et al. 2018) are logP values, retold here.

Peptide text beside a SMILES is read from it.

Usually logP stands for the decadic logarithm of the partition coefficient of the neutral form, usually between octanol and water. `C=CCC1(C(C)C)C(=O)NC(=O)NC1=O` showed a logP of 1.15.

`CCCCCCCOC(=O)C(C(=O)OCCCCCCC)=C1SCCS1` registered a logP of 7.6.

As to `CCC(C)C(NC(=O)C(CCCCN)NC(C)=O)C(=O)NC(Cc1ccccc1)C(N)=O` (stereo not drawn), the lipophilicity (logP) amounted to 0.65.

Compound `CN(N=O)C(=O)Nc1ccccc1` returned a logP of 1.72.

On to `Cc1cccc2cc[nH]c12`, for which the lipophilicity (logP) is 2.56.

`CCCC(=O)OCn1cnc(CSCCNC(=NC#N)NC)c1C` registered a logP of 1.6.

Take `Nc1c([N+](=O)[O-])cccc1[N+](=O)[O-]`: the logP was found to be 1.79.

In the case of `CCCCCC1(CC)C(=O)NC(=O)NC1=O`, the logP worked out at 2.24.

Regarding `COC(=O)COc1ccccc1`, the logP was determined as 1.41.

Regarding `CN(C)C(=O)c1ccccc1`, the logP stood at 0.62.

With `CC(C)CCn1cnc([N+](=O)[O-])n1`, the logP is 1.34.

`O=[N+]([O-])c1nccn1CCO`: the lipophilicity (logP) was -0.47.

`O=C(O)c1ccc(F)cc1` came in with a logP of 2.07.

Compound `O=C1C=CC(=NO)C=C1` gave a logP of 1.08.

With `COC(=O)c1cccnc1`, the logP stood at 0.83.

Compound `Cc1cc(C)c(C)cc1C` yielded a logP of 4.

`CC(C)NC(=O)C=Cc1ccc([N+](=O)[O-])o1` gave a logP of 1.34.

Compound `CCCCC1CCCc2ncc(C(=O)OC)c(=O)n21` (stereo not drawn) yielded a logP of 1.77.

Turning to `CCCCCCCI`, the logP amounted to 4.7.

Compound `CCCCCCC1(CC)C(=O)NC(=O)NC1=O` showed a logP of 2.46.

`CCOC(=O)C(=Cc1ccc(Cl)cc1)C(C)=O` showed a logP of 3.04.

On to `CCNc1nc(NC(C)(C)C)nc(SC)n1`, for which the logP was determined as 3.74.

`O=C1CNC(=O)N1` returned a logP of -1.69.

With `NC(=S)c1cccnc1`, the log partition coefficient (logP) worked out at 0.67.

The compound `NCCCN1CCN(CCCN)CC1` showed a logP of -1.43.

`OC1(c2ccc(Cl)cc2)CCN(CCCC2(c3ccc(F)cc3)OCCO2)CC1`: the logP is 3.84.

Consider `COP(=O)(OC)O/C(C)=C/C(=O)N(C)C`, for which the logP is 0.

On to `c1ccc(C2CO2)cc1` (stereo not drawn), for which the logP worked out at 1.61.

Consider `CC(C)(N)Cc1ccccc1`, for which the logP amounted to 1.9.

For the compound `CN(C)C(=O)OCc1ccc(OC(=O)N(C)C)cc1`, the log partition coefficient (logP) came to 1.59.

The compound `CC1(O)CC23C(O)C1CCC2(O)C(C)(O)C1C2OC2C(C)(C)C1(O)C(O)C3O` (stereo not drawn) returned a logP of -0.57.

For the compound `CN(Cc1ccccc1)c1ccccc1`, the logP came out at 4.22.

Compound `Cc1ccc(N=C=S)cc1` returned a logP of 3.92.

As for `O=C(O)c1cc(I)cc(I)c1O`, the logP came to 4.56.

In turn, `Nc1cccc(F)c1` returned a logP of 1.3.

Consider `Oc1c(Cl)cc(Cl)c(Cl)c1Cc1c(O)c(Cl)cc(Cl)c1Cl`, for which the logP came out at 7.54.

`c1cnc2ccc3ncccc3c2c1` returned a logP of 2.05.

In turn, `CN(C)C(N(C)C)=S(I)c1ccc(Cl)cc1[N+](=O)[O-]` (stereo not drawn) showed a logP of -0.09.

As to `O=[N+]([O-])c1ccc2[nH]ccc2c1`, the logP is 2.53.

On to `CC(C)C(=O)NN`, for which the logP is -0.63.

In the case of `CN(C)N=Nc1cccc(C(F)(F)F)c1`, the logP came out at 3.78.

The compound `CCC=O` showed a logP of 0.59.

Regarding `CCCCCOCc1ccccc1NC(=O)OCCN1CCCCC1`, the logP is 4.42.

With `COc1ccc(O)cc1`, the lipophilicity (logP) was determined as 1.58.

On to `[N-]=[N+]=NC1CC(n2cnc3c(=O)[nH]c(N)nc32)OC1CO` (stereo not drawn), for which the logP was -0.33.

The compound `CCCCOC(=O)c1cccnc1` displayed a logP of 2.27.

`NCCc1ccccn1`: the logP turned out to be 0.08.

The compound `CN(C)C1=CC(=O)c2ccccc2C1=O` returned a logP of 1.9.

Compound `Fc1ccccc1F` showed a logP of 2.37.

`CCC(=O)OC1(C(=O)CCl)C(C)CC2C3CCC4=CC(=O)C=CC4(C)C3(F)C(=O)CC21C` (stereo not drawn) gave a logP of 3.46.

`O=c1[nH]cc(C(F)(F)F)c(=O)[nH]1` came in with a logP of 0.04.

For `O=C(O)COc1ccc(Cl)c(Br)c1`, the logP stood at 2.75.

`CCOC(=O)C(=Cc1ccccc1OC)C(C)=O` showed a lipophilicity (logP) of 2.39.

For `Cc1ccc2cc(C)ccc2c1`, the logP is 4.31.

`N#Cc1ccc2nc(N)[nH]c2c1` gave a logP of 1.13.

`C#CC(C)N(C)C(=O)Nc1ccc(Cl)cc1` (stereo not drawn): the logP turned out to be 3.

Consider `CS(=O)(=O)OCCCCOS(C)(=O)=O`, for which the logP was -0.52.

Regarding `OCC=Cc1ccccc1`, the lipophilicity (logP) was 1.95.

Compound `Cc1cccs1` yielded a logP of 2.33.

Consider `COC(=O)c1ccncc1`, for which the logP came to 0.87.

For the compound `CN(CCO)N=Nc1ccc(C(N)=O)cc1`, the logP was 0.26.

As for `CC(=O)N[C@@H](C)C(=O)N[C@@H](CC(C)C)C(N)=O` (Ac-Ala-Leu-NH2), the logP was -0.54.

Turning to `CC(=O)C(=Cc1ccc(Cl)cc1)C(C)=O`, the log partition coefficient (logP) turned out to be 2.32.

`CCCSP(=O)(OCC)Oc1ccc(Br)cc1Cl` (stereo not drawn) yielded a logP of 4.68.

On to `CCc1cccc(OC(=O)NC)c1`, for which the logP was determined as 2.2.

For the compound `CN(C)c1ccncc1`, the logP came to 1.34.

In turn, `CC(=O)N(c1ccc(N2CCOCC2)nn1)n1c(C)ccc1C` registered a logP of 1.64.

`N#CC1CC1` registered a logP of 0.68.

Compound `CCOP(=S)(OCC)SCn1c(=O)oc2cc(Cl)ccc21` yielded a logP of 4.38.

Compound `CC(=O)N[C@@H](Cc1ccc(O)cc1)C(=O)N[C@@H](Cc1ccccc1)C(N)=O` (Ac-Tyr-Phe-NH2) yielded a logP of 0.54.

In the case of `ICCCc1ccccc1`, the logP amounted to 3.9.

Turning to `NC(=O)Cc1ccncc1`, the logP was -0.65.

As to `c1ccc2oncc2c1`, the logP was found to be 1.63.

With `OCc1ccoc1`, the logP was 0.3.

For `FC(F)F`, the logP is 0.64.

The compound `CCCCOP(=O)(OCCCC)Oc1ccccc1` registered a logP of 4.27.

`COC(=O)C(C)N(C(=O)Cc1ccccc1)c1c(C)cccc1C` (stereo not drawn): the logP was determined as 3.4.

For `O=C(CCl)Nc1ccccc1`, the logP stood at 1.63.

For the compound `CCC(C)NC(=O)C=C(Cl)c1ccccc1` (stereo not drawn), the logP came to 3.52.

For `O=C(O)c1ccncc1`, the logP was determined as 0.32.

`CN(C)c1ccc(NS(=O)(=O)c2ccc(N)cc2)cc1` had a lipophilicity (logP) of 1.57.

Regarding `NC(=O)CCOc1ccccc1`, the logP was 0.8.

`CC1=NS(=O)(=O)c2ccc(C(F)(F)F)cc2N1` showed a logP of 1.59.

Compound `Nc1cc(C(F)(F)F)cc(C(F)(F)F)c1` yielded a logP of 3.57.

For the compound `O=C(O)c1cc(Cl)ccc1[N+](=O)[O-]`, the logP amounted to 2.13.

As for `NC(=O)N(CCCl)N=O`, the logP stood at 0.57.

Regarding `Cc1cccc2ncc(-c3ccccc3)c(=O)n12`, the logP is 2.59.

For the compound `Oc1cccc2cccnc12`, the logP is 2.02.

For `COc1cccc(-c2cc3ccccn3c2)c1`, the logP turned out to be 4.14.

In turn, `CCO[Si](OCC)(c1ccccc1)c1ccccc1` yielded a log partition coefficient (logP) of 4.92.

`CNC(=O)Oc1ccc([N+](=O)[O-])cc1` displayed a logP of 1.47.

On to `CNC(=O)C=Cc1ccccc1`, for which the logP is 1.81.

Take `CN(C(N)=S)c1ccccc1`: the lipophilicity (logP) came out at 0.85.

Regarding `COc1ccccc1NS(=O)(=O)c1ccc(N)cc1`, the logP was 1.56.

For the compound `O=C(O)COc1ccc(Br)cc1`, the logP came to 2.45.

In turn, `c1ccc(COc2cccc3cccnc23)cc1` registered a logP of 3.51.

For the compound `CN(C)C(N(C)C)=S(I)c1cc(Cl)c(Cl)cc1Cl` (stereo not drawn), the log partition coefficient (logP) was 0.68.

`CCc1ccccc1OCC(=O)O` had a logP of 2.53.
